Laboratory results: US11628162B2, “Methods of treating cancer with an FGFR inhibitor” (Incyte Corporation, priority 2019, dated 2023)
Where “and” joins values, the source holds several entries; their conditions need not be identical. Identical values can stand only once. Like-named read-outs stand apart in the source and are kept apart here.

Key:
human liver microsomes [1] = assay: Metabolism of pemigatinib in human liver microsomes with selective chemical CYP inhibitors; details: pemigatinib 1 μM, human liver microsomes 1 mg/mL, NADPH; no inhibitor or furafylline 10, ticlopidine 2, quercetin 10, sulfaphenazole 10, tranylcypromine 20, quinidine 1, ketoconazole 2 μM
Description: (§1) Aliquots were taken at 0, 10, 20, and 30 minutes and denatured with methanol. After centrifugation to remove the denatured proteins, the resulting supernatants were analyzed by LC/MS.

human liver microsomes [2] = details: 0.5 h, 1 μM, pH 7.4
Description: as §1

[3] = human, in vivo
[4] = Phase 1 drug-drug interaction study: safety and tolerability (TEAEs); details: healthy male and female volunteers
Description: In addition, this study also evaluates the safety and tolerability of pemigatinib when administered alone or in combination with itraconazole or rifampin. Safety and tolerability is assessed by monitoring adverse events, vital signs, physical examinations, 12-lead ECGs, and clinical laboratory blood and urine sample assessments. Pharmacokinetic endpoints include tmax, AUC0-t, AUC0-∞, t1/2, CL/F, and Vz/F.
Vital signs (oral temperature; respiratory rate; automated, seated blood pressure; and pulse) are obtained at screening, check-in, and follow-up; at 0 hour (predose) on Days 1 and 8; and at approximately 1, 2, 3, 6, and 24 hours after the morning dose on Day 4 and Day 9. Clinical safety laboratory assessments are performed at screening; on Days −1, 2, 5, 9, 10, and 11; and at follow-up. A serum pregnancy is obtained at screening and follow-up. A urine pregnancy test is obtained at check-in for each visit for all women. On Day 8, a 12-lead ECG is performed predose, 2 hours postdose, and approximately 24 hours postdose. On other days, 12-lead ECGs are performed only at predose.
Vital signs (oral temperature; respiratory rate; automated, seated blood pressure; and pulse) are obtained at screening, check-in and follow-up; at 0 hour (predose) on Days 1 and 11; and at approximately 1, 2, 3, 6, and 24 hours after the morning dose on Days 4, 10, and 12. Clinical safety laboratory assessments are performed at screening; on Days −1, 2, 8, and 13; and at follow-up. A serum pregnancy test is obtained at screening and follow-up. A urine pregnancy test is obtained at check-in for each visit for all women. On Day 11, a 12-lead ECG is performed predose, 2 hours postdose, and approximately 24 hours postdose. On other days, 12-lead ECGs is performed only at predose.

[5] = Phase 1 drug-drug interaction study: single-dose pemigatinib PK alone or with itraconazole or rifampin
[6] = Cohort 2: 13.5 mg pemigatinib alone or with rifampin 600 mg QD, geometric mean
[7] = Cohort 2: 13.5 mg pemigatinib alone or with rifampin 600 mg QD, mean ± SD

## N[C@@H]1C[C@H]1c1ccccc1 (racemic) [Tranylcypromine]
Human liver microsomes [1]
  Mean Percent of Pemigatinib Remaining After 30-Minute Incubation (N = 3): 73 ± 2%

## Cc1nc2c([nH]1)c(=O)n(C)c(=O)n2Cc1ccco1 [Furafylline]
Human liver microsomes [2]
  Mean Percent of Pemigatinib Remaining After 30-Minute Incubation (N = 3): 67 ± 1%

## CCC(C)n1ncn(-c2ccc(N3CCN(c4ccc(OCC5COC(Cn6cncn6)(c6ccc(Cl)cc6Cl)O5)cc4)CC3)cc2)c1=O (centres unmarked) [Itraconazole, reference compound]
[3]; po
  Pemigatinib AUC Ratio, Observed: 1.88
  Pemigatinib Cmax Ratio, Observed: 1.17

## CCN1C(=O)N(c2c(F)c(OC)cc(OC)c2F)Cc2cnc3[nH]c(CN4CCOCC4)cc3c21 [Pemigatinib + rifampin]
[3]
  Decrease in half-life of pemigatinib following rifampin coadministration: 63%
[4]
  Safety and tolerability (overall conclusion): safe and generally well tolerated
[5]; [6]
  AUC0-t: 0.28 µM·h
  AUC0-∞: 0.292 µM·h
  CL/F: 94.7 L/h
  Cmax: 66.9 nM
  t1/2: 4.7 h and 4.69 h
[5]; [7]
  AUC0-t: 0.289 ± 0.0749 µM·h
  AUC0-∞: 0.301 ± 0.0755 µM·h
  CL/F: 97.5 ± 23.8 L/h
  t1/2: 5.05 ± 2.76 h
[5]; Cohort 2: 13.5 mg pemigatinib alone or with rifampin 600 mg QD, median
  Tmax: 1.00 h
[5]; Cohort 2: healthy volunteers n=18, single oral 13.5 mg pemigatinib fasted, alone or with rifampin 600 mg QD, mean ± SD
  Cmax: 69.7 ± 20 nM
[5]; with potent CYP3A4 inhibitor or inducer, healthy volunteers
  Change in pemigatinib exposure on coadministration: clinically significant decrease

## O=c1c(O)c(-c2ccc(O)c(O)c2)oc2cc(O)cc(O)c12 [Quercetin]
Human liver microsomes [2]
  Mean Percent of Pemigatinib Remaining After 30-Minute Incubation (N = 3): 77 ± 1%

## Nc1ccc(S(=O)(=O)Nc2ccnn2-c2ccccc2)cc1 [Sulfaphenazole]
Human liver microsomes [2]
  Mean Percent of Pemigatinib Remaining After 30-Minute Incubation (N = 3): 70 ± 3%
